Assay [1] concerns Lactobacillus reuteri CECT 9859. As to the kind of experiment: Broth microdilution MIC (MRS and LSM medium). As to Category (LSM): key: S, susceptible; R, resistant. As to Category (MRS): key: S, susceptible; R, resistant. It counts as cell-based. The settings on record: for Category (LSM) / Category (MRS): against EFSA (2018) breakpoints.
Assay [2] relates to S. aureus ATCC25923. As to the kind of experiment: Broth microdilution MIC, control strain. As to Category: key: S, susceptible; R, resistant. It counts as cell-based. The settings on record: for Category: against CLSI values. In general terms: In broth dilution the organism is exposed to a series of concentrations in liquid medium.
The mark [3] stands for this setting: Limosilactobacillus reuteri, CECT9859, 24 h, MRS medium, anaerobic, 37° C., 24 h, read-out: MIC.
The mark [4] stands for this setting: Staphylococcus aureus, ATCC25923.
[5] abbreviates: Limosilactobacillus reuteri, CECT9859, 24 h, LSM medium, anaerobic, 37° C., 24 h, read-out: MIC.
The mark [6] stands for this setting: Staphylococcus aureus, ATCC25923, MH medium, control strain, read-out: MIC.

Converted amounts (≈) assume the structure as drawn. Like-named read-outs stand apart in the source and are kept apart here.

With `CC[C@H]1OC(=O)[C@H](C)[C@@H](O[C@H]2C[C@@](C)(OC)[C@@H](O)[C@H](C)O2)[C@H](C)[C@@H](O[C@@H]2O[C@H](C)C[C@H](N(C)C)[C@H]2O)[C@](C)(O)C[C@@H](C)C(=O)[C@H](C)[C@@H](O)[C@]1(C)O` [Erythromycin], in assay [1] (LSM medium), the “Category (LSM)” value is “S”. Besides, the MIC worked out at 0.125 µg/mL (≈ 0.17 µM) in assay [1] (Limosilactobacillus reuteri, CECT9859, 24 h); 0.25 µg/mL (≈ 0.341 µM) in assay [1] (setting [3]); 0.125 µg/mL (≈ 0.17 µM) in assay [2] (setting [4]). For the same compound, in assay [1] (MRS medium), the “Category (MRS)” value is “S”. In addition, in assay [2] (MH medium), the Category result is “S”.
Turning to `O=C(N[C@H](CO)[C@H](O)c1ccc([N+](=O)[O-])cc1)C(Cl)Cl` [Chloramphenicol], the “Category (LSM)” value in assay [1] (LSM medium) is given as “S”. Moreover, the minimum inhibitory concentration (MIC) in assay [1] (setting [5]), in assay [1] (setting [3]) and in assay [2] (setting [6]) was 4 µg/mL (≈ 12.4 µM) throughout. The “Category (MRS)” value in assay [1] (MRS medium) is reported as “S”. For the same compound, the Category result in assay [2] (MH medium) was “S”.
With `CC1(C)S[C@@H]2[C@H](NC(=O)[C@H](N)c3ccccc3)C(=O)N2[C@H]1C(=O)O` [Ampicillin], the “Category (LSM)” value in assay [1] (LSM medium) is recorded as “S”. The figures for the MIC in assay [1] (setting [5]), in assay [1] (setting [3]) and in assay [2] (setting [6]) were 0.25 µg/mL (≈ 0.715 µM), 0.25 µg/mL (≈ 0.715 µM) and 0.125 µg/mL (≈ 0.358 µM), respectively. In assay [1] (MRS medium), the “Category (MRS)” value was “S”. Further, the Category entry in assay [2] (MH medium) is listed as “S”.
On to `CN[C@H](CC(C)C)C(=O)N[C@H]1C(=O)N[C@@H](CC(N)=O)C(=O)N[C@H]2C(=O)N[C@H]3C(=O)N[C@H](C(=O)N[C@H](C(=O)O)c4cc(O)cc(O)c4-c4cc3ccc4O)[C@H](O)c3ccc(c(Cl)c3)Oc3cc2cc(c3O[C@@H]2O[C@H](CO)[C@@H](O)[C@H](O)[C@H]2O[C@H]2C[C@](C)(N)[C@H](O)[C@H](C)O2)Oc2ccc(cc2Cl)[C@H]1O` [Vancomycin], for which the “Category (LSM)” value in assay [1] (LSM medium) is on record as “R”. Besides, the minimum inhibitory concentration (MIC) in assay [1] (setting [5]) is 512 µg/mL (≈ 353 µM); in assay [1] (setting [3]) it was more than 512 µg/mL; in assay [2] (setting [4]) it was 1 µg/mL (≈ 0.69 µM). In addition, the “Susceptibility of the strain” value in assay [1] (MRS and LSM) is listed as “resistant”. Also, the “Category (MRS)” value in assay [1] (MRS medium) was “R”. Further, the Category entry in assay [2] (MH medium) is listed as “S”.
`CCC[C@@H]1C[C@@H](C(=O)N[C@@H]([C@H]2O[C@H](SC)[C@H](O)[C@@H](O)[C@H]2O)[C@H](C)Cl)N(C)C1` [Clindamycin]: in assay [1] (LSM medium), the “Category (LSM)” value was “S”. The results for the MIC in assay [1] (setting [5]), in assay [1] (setting [3]) and in assay [2] (setting [4]) were 0.25 µg/mL (≈ 0.588 µM), 0.25 µg/mL (≈ 0.588 µM) and 0.125 µg/mL (≈ 0.294 µM), respectively. Further, the “Category (MRS)” value in assay [1] (MRS medium) is given as “S”. Moreover, the Category entry in assay [2] (MH medium) is “S”.
Regarding `CN(C)[C@@H]1C(O)=C(C(N)=O)C(=O)[C@@]2(O)C(O)=C3C(=O)c4c(O)cccc4[C@@](C)(O)[C@H]3C[C@@H]12` [Tetracycline], the “Category (LSM)” value in assay [1] (LSM medium) is recorded as “S”. Further, the MIC in assay [1] (setting [5]) stood at 8 µg/mL (≈ 18 µM); in assay [1] (setting [3]) it was 4 µg/mL (≈ 9 µM); in assay [2] (setting [6]), 1 µg/mL (≈ 2.25 µM). In addition, the “Category (MRS)” value in assay [1] (MRS medium) is “S”. Further, in assay [2] (MH medium), the Category entry is “S”.
With Gentamicin, the “Category (LSM)” value in assay [1] (LSM medium) is reported as “S”. Moreover, the minimal inhibitory concentration (MIC) in assay [1] (LSM medium, anaerobic, 37° C., 24 h) turned out to be 2 µg/mL; in assay [1] (MRS medium, anaerobic, 37° C., 24 h) it was 16 µg/mL; in assay [2] (MH medium, control strain) it was 0.125 µg/mL. Besides, the “Category (MRS)” value in assay [1] (MRS medium) is recorded as “R”. Besides, the Category result in assay [2] (MH medium) is listed as “S”.
On to `NC[C@H]1O[C@H](O[C@H]2[C@H](O)[C@@H](O[C@H]3O[C@H](CO)[C@@H](O)[C@H](N)[C@H]3O)[C@H](N)C[C@@H]2N)[C@H](O)[C@@H](O)[C@@H]1O` [Kanamycin], for which the “Category (LSM)” value in assay [1] (LSM medium) is listed as “S”. Also, the minimum inhibitory concentration (MIC) in assay [1] (setting [5]) was 64 µg/mL (≈ 132 µM); in assay [1] (setting [3]) it was 512 µg/mL (≈ 1060 µM); in assay [2] (setting [6]) it was 2 µg/mL (≈ 4.13 µM). Further, the “Category (MRS)” value in assay [1] (MRS medium) is on record as “R”. Moreover, the Category entry in assay [2] (MH medium) was “S”.
Consider `[H]/N=C(/N)N[C@H]1[C@H](O)[C@@H](O)[C@H](O[C@@H]2O[C@@H](C)[C@](O)(C=O)[C@H]2O[C@@H]2O[C@@H](CO)[C@H](O)[C@@H](O)[C@@H]2NC)[C@@H](N/C(N)=N\[H])[C@@H]1O` [Streptomycin], for which the “Category (LSM)” value in assay [1] (LSM medium) is on record as “S”. Moreover, the MIC in assay [1] (setting [5]) was 16 µg/mL (≈ 27.5 µM); in assay [1] (setting [3]), 128 µg/mL (≈ 220 µM); in assay [2] (setting [6]) it was 2 µg/mL (≈ 3.44 µM). Moreover, the “Category (MRS)” value in assay [1] (MRS medium) is recorded as “R”.

By MIC is commonly meant the lowest concentration that inhibits growth of the organism.

The values above are taken from patent US12582681B2, “Fermented milk product for administration in canids such as dogs, and uses thereof” (priority 2019, dated 2026).
